Experimental data: PubChem BioAssay AID222 (DTP/NCI, 2004)
Where “and” joins values, the source holds several entries; their conditions need not be identical. Identical values can stand only once. Inconclusive results and toxic doses are left out.

Tested on: C57BL/6 mice, intracerebral ependymoblastoma, median survival T/C
Test: NCI In Vivo Anticancer Drug Screen. Data for tumor model Ependymoblastoma (intracerebral) in C57BL/6 mice
Details: endpoint: median survival time, higher = longer survival
Experimental: The antitumor activity of compounds was measured in mice bearing transplantable tumors. Survival or tumor size were measured and the results are expressed as the measurement made in the treated group (T) divided by the measurement made in the vehicle treated control group (C). The tumor model used in this assay is Ependymoblastoma (intracerebral) in C57BL/6 mice

[1] = dose: 8.0 mg/kg/injection, schedule: Q01DX005 (ip), vehicle: Klucel (hydroxypropylcellulose) (HPC)
[2] = dose: 128.0 mg/kg/injection, schedule: Q01DX005 (ip), vehicle: saline with Tween-80
[3] = dose: 32.0 mg/kg/injection, schedule: Q01DX005 (ip), vehicle: saline
[4] = dose: 16.0 mg/kg/injection, schedule: Q01DX005 (ip), vehicle: saline
[5] = dose: 0.25 mg/kg/injection, schedule: Q01DX005 (ip), vehicle: saline
[6] = dose: 0.5 mg/kg/injection, schedule: Q01DX005 (ip), vehicle: saline
[7] = dose: 0.12 mg/kg/injection, schedule: Q01DX005 (ip), vehicle: saline

`C[n+]1ccc(Nc2ccc(NC(=O)c3ccc(Nc4cc[n+](C)c5ccc(N)cc45)cc3)cc2)cc1` was tested, and the T/C (dose: 1.0 mg/kg/injection, schedule: Q01DX005 (ip), vehicle: Klucel (hydroxypropylcellulose) (HPC)) was 95 % of control, the T/C (dose: 2.0 mg/kg/injection, schedule: Q01DX005 (ip), vehicle: Klucel (hydroxypropylcellulose) (HPC)) was 113 % of control and the T/C (dose: 4.0 mg/kg/injection, schedule: Q01DX005 (ip), vehicle: Klucel (hydroxypropylcellulose) (HPC)) was 108 % of control. The T/C [1] was 113 % of control.
`Nc1ncnc2nc[nH]c12` was tested, and the T/C [2] was 92 % of control.
In the case of `O=[N+]([O-])O.[Ga]`, the T/C [3] is reported as 110 % of control.
For `O=c1[nH]c(=O)n([C@H]2CCCO2)cc1F`, the T/C [1] was 97 % of control and 98 % of control, the T/C (dose: 8.0 mg/kg/injection, schedule: Q01DX005 (ip), vehicle: saline with Tween-80) was 90 % of control and 97 % of control and the T/C (dose: 8.0 mg/kg/injection, schedule: Q01DX005 (ip), vehicle: saline) was 101 % of control and 111 % of control. For the same molecule, the T/C (dose: 16.0 mg/kg/injection, schedule: Q01DX005 (ip), vehicle: Klucel (hydroxypropylcellulose) (HPC)) was 100 % of control and 106 % of control and 112 % of control, the T/C (dose: 16.0 mg/kg/injection, schedule: Q01DX005 (ip), vehicle: saline with Tween-80) was 103 % of control and 105 % of control and the T/C [4] was 100 % of control and 110 % of control. For the same molecule, the T/C (dose: 32.0 mg/kg/injection, schedule: Q01DX005 (ip), vehicle: Klucel (hydroxypropylcellulose) (HPC)) was 98 % of control and 109 % of control and 114 % of control, the T/C (dose: 32.0 mg/kg/injection, schedule: Q01DX005 (ip), vehicle: saline with Tween-80) was 102 % of control and 106 % of control and the T/C [3] was 102 % of control and 109 % of control (2×). For the same molecule, the T/C (dose: 64.0 mg/kg/injection, schedule: Q01DX005 (ip), vehicle: Klucel (hydroxypropylcellulose) (HPC)) was 100 % of control and 103 % of control and 108 % of control, the T/C (dose: 64.0 mg/kg/injection, schedule: Q01DX005 (ip), vehicle: saline with Tween-80) was 104 % of control and 120 % of control and the T/C (dose: 64.0 mg/kg/injection, schedule: Q01DX005 (ip), vehicle: saline) was 98 % of control and 111 % of control (2×). The T/C (dose: 128.0 mg/kg/injection, schedule: Q01DX005 (ip), vehicle: Klucel (hydroxypropylcellulose) (HPC)) was 112 % of control and 117 % of control, the T/C [2] was 111 % of control and 114 % of control and the T/C (dose: 128.0 mg/kg/injection, schedule: Q01DX005 (ip), vehicle: saline) was 102 % of control and 113 % of control and 119 % of control. For the same molecule, the T/C (dose: 256.0 mg/kg/injection, schedule: Q01DX005 (ip), vehicle: saline) was 106 % of control and 121 % of control.
In the case of `COc1ccc(CC2C(=O)NC(C)C(=O)N(C)C3C(=O)N(C)C(Cc4ccc(O)c(c4)Oc4ccc(cc4)C3O)C(=O)NC(C)C(=O)NC(C)C(=O)N2C)cc1` (stereo unspecified), the T/C (dose: 0.13 mg/kg/injection, schedule: Q01DX005 (ip), vehicle: saline) is reported as 103 % of control, the T/C [5] is reported as 98 % of control and the T/C [6] is reported as 98 % of control. For the same molecule, the T/C (dose: 1.0 mg/kg/injection, schedule: Q01DX005 (ip), vehicle: saline) was 95 % of control.
`CN(N=O)C(=O)N[C@@H](C=O)[C@@H](O)[C@H](O)[C@H](O)CO` was tested, and the T/C (dose: 14.5 mg/kg/injection, schedule: Q## X006 (ip), vehicle: saline) was 109 % of control, the T/C (dose: 16.0 mg/kg/injection, schedule: Q01DX001 (ip), vehicle: saline) was 98 % of control and 109 % of control and the T/C (dose: 16.0 mg/kg/injection, schedule: Q01DX005 (ip), vehicle: other) was 113 % of control. The T/C [4] was 117 % of control, the T/C (dose: 16.0 mg/kg/injection, schedule: Q#A X002 (ip), vehicle: saline) was 100 % of control and 108 % of control and the T/C (dose: 29.0 mg/kg/injection, schedule: Q## X006 (ip), vehicle: saline) was 111 % of control. The T/C (dose: 32.0 mg/kg/injection, schedule: Q01DX001 (ip), vehicle: other) was 105 % of control, the T/C (dose: 32.0 mg/kg/injection, schedule: Q01DX001 (oral), vehicle: other) was 116 % of control and the T/C (dose: 32.0 mg/kg/injection, schedule: Q01DX005 (ip), vehicle: other) was 120 % of control. For the same molecule, the T/C [3] was 114 % of control, the T/C (dose: 32.0 mg/kg/injection, schedule: Q01DX005 (oral), vehicle: other) was 95 % of control and the T/C (dose: 32.0 mg/kg/injection, schedule: Q01DX005 (oral), vehicle: saline) was 102 % of control. For the same molecule, the T/C (dose: 32.0 mg/kg/injection, schedule: Q## X006 (ip), vehicle: other) was 112 % of control, the T/C (dose: 32.0 mg/kg/injection, schedule: Q#A X002 (ip), vehicle: saline) was 104 % of control and 114 % of control and the T/C (dose: 57.9 mg/kg/injection, schedule: Q## X006 (ip), vehicle: saline) was 114 % of control. The T/C (dose: 64.0 mg/kg/injection, schedule: Q01DX001 (oral), vehicle: other) was 102 % of control, the T/C (dose: 64.0 mg/kg/injection, schedule: Q01DX005 (ip), vehicle: other) was 110 % of control and the T/C (dose: 64.0 mg/kg/injection, schedule: Q01DX005 (oral), vehicle: other) was 103 % of control. The T/C (dose: 64.0 mg/kg/injection, schedule: Q01DX005 (oral), vehicle: saline) was 101 % of control, the T/C (dose: 64.0 mg/kg/injection, schedule: Q## X006 (ip), vehicle: other) was 116 % of control and the T/C (dose: 64.0 mg/kg/injection, schedule: Q#A X002 (ip), vehicle: saline) was 89 % of control and 118 % of control. For the same molecule, the T/C (dose: 128.0 mg/kg/injection, schedule: Q01DX001 (oral), vehicle: other) was 101 % of control, the T/C (dose: 128.0 mg/kg/injection, schedule: Q01DX005 (oral), vehicle: saline) was 98 % of control and the T/C (dose: 128.0 mg/kg/injection, schedule: Q## X006 (ip), vehicle: other) was 121 % of control. The T/C (dose: 128.0 mg/kg/injection, schedule: Q#A X002 (ip), vehicle: saline) was 89 % of control and 113 % of control, the T/C (dose: 231.7 mg/kg/injection, schedule: Q## X006 (ip), vehicle: saline) was 119 % of control and the T/C (dose: 256.0 mg/kg/injection, schedule: Q01DX001 (oral), vehicle: other) was 113 % of control. For the same molecule, the T/C (dose: 256.0 mg/kg/injection, schedule: Q01DX005 (oral), vehicle: other) was 93 % of control, the T/C (dose: 256.0 mg/kg/injection, schedule: Q01DX005 (oral), vehicle: saline) was 103 % of control and the T/C (dose: 256.0 mg/kg/injection, schedule: Q#A X002 (ip), vehicle: saline) was 92 % of control. The T/C (dose: 512.0 mg/kg/injection, schedule: Q01DX001 (oral), vehicle: other) was 113 % of control, the T/C (dose: 512.0 mg/kg/injection, schedule: Q01DX005 (oral), vehicle: saline) was 113 % of control and the T/C (dose: 1024.0 mg/kg/injection, schedule: Q01DX001 (oral), vehicle: other) was 117 % of control.
`N=c1ccn2c(n1)OC1C(O)C(CO)OC12` (stereo unspecified) was tested, and the T/C (dose: 100.0 mg/kg/injection, schedule: Q01DX001 (ip), vehicle: saline) was 118 % of control, the T/C (dose: 100.0 mg/kg/injection, schedule: Q01DX005 (ip), vehicle: saline) was 106 % of control and 112 % of control and the T/C (dose: 200.0 mg/kg/injection, schedule: Q01DX001 (ip), vehicle: saline) was 123 % of control. The T/C (dose: 200.0 mg/kg/injection, schedule: Q01DX005 (ip), vehicle: saline) was 120 % of control and 122 % of control, the T/C (dose: 400.0 mg/kg/injection, schedule: Q01DX001 (ip), vehicle: saline) was 111 % of control and the T/C (dose: 400.0 mg/kg/injection, schedule: Q01DX005 (ip), vehicle: saline) was 122 % of control. The T/C (dose: 800.0 mg/kg/injection, schedule: Q01DX001 (ip), vehicle: saline) was 116 % of control.
For `O=C(CCCN1CCC(O)(c2cccc(C(F)(F)F)c2)CC1)c1ccc(F)cc1`, the T/C (dose: 25.0 mg/kg/injection, schedule: Q04DX003 (ip), vehicle: Klucel (hydroxypropylcellulose) (HPC)) was 103 % of control and the T/C (dose: 50.0 mg/kg/injection, schedule: Q04DX003 (ip), vehicle: Klucel (hydroxypropylcellulose) (HPC)) was 97 % of control.
`C1CN1c1nc(N2CC2)nc(N2CC2)n1` was tested, and the T/C [7] was 111 % of control and the T/C [5] was 124 % of control.
For `Cc1c2cc[n+](C)cc2c(C)c2c1[nH]c1ccc(O)cc12`, the T/C [7] was 100 % of control, the T/C [5] was 101 % of control and 112 % of control and the T/C [6] was 101 % of control.
`CCC1CC2CN(CCc3c([nH]c4ccccc34)C(C(=O)OC)(c3cc4c(cc3OC)N(C)C3C(O)(C(=O)OC)C(OC(C)=O)C5(CC)C=CCN6CCC43C65)C2)C1` (stereo unspecified) was tested, and the T/C (dose: 0.05 mg/kg/injection, schedule: Q01DX005 (ip), vehicle: Klucel (hydroxypropylcellulose) (HPC)) was 102 % of control, the T/C (dose: 0.1 mg/kg/injection, schedule: Q01DX005 (ip), vehicle: Klucel (hydroxypropylcellulose) (HPC)) was 108 % of control and the T/C (dose: 0.2 mg/kg/injection, schedule: Q01DX005 (ip), vehicle: Klucel (hydroxypropylcellulose) (HPC)) was 108 % of control. The T/C (dose: 0.4 mg/kg/injection, schedule: Q01DX005 (ip), vehicle: Klucel (hydroxypropylcellulose) (HPC)) was 108 % of control, the T/C (dose: 0.8 mg/kg/injection, schedule: Q01DX005 (ip), vehicle: Klucel (hydroxypropylcellulose) (HPC)) was 108 % of control and the T/C (dose: 1.6 mg/kg/injection, schedule: Q01DX005 (ip), vehicle: Klucel (hydroxypropylcellulose) (HPC)) was 102 % of control.
For `NC(=O)N(CCCl)N=O`, the T/C (dose: 0.5 mg/kg/injection, schedule: Q01DX005 (ip), vehicle: saline + alcohol) was 118 % of control and the T/C (dose: 2.0 mg/kg/injection, schedule: Q01DX005 (ip), vehicle: saline + alcohol) was 276 % of control.
